Data published in PubChem BioAssay AID1508591.

Conditions: rat; liver microsomes; pH 7.4; 15.0 min; 1.0 µM

Cc1ccc(C(=O)Nc2nc3nc(-c4ccccc4)cc(=O)n3[nH]2)cc1
half-life: > 30 min

CC1=C(C(=O)NC2CCCCC2)C(c2ccccc2Br)N=C(Nc2nc3ccccc3o2)N1 (stereo not given)
half-life: 7.4 min

CN(C(=O)CNC(=O)c1ccccc1OCC(=O)Nc1ccc(I)cc1)c1ccccc1
half-life: 1.44 min

O=C(Cc1cccs1)NCc1nnc2ccc(-c3ccccc3)nn12
half-life: 17.8 min

CCOC(=O)Nc1ccc(NCc2ccc(F)cc2)nc1N
half-life: > 30 min

CC(=O)c1c(C)[nH]c(C(=O)Nc2cccc([S+](=O)([O-])Nc3ccccc3)c2)c1C
half-life: 4.2 min

O=C(c1ccccc1)N1CCC(C(=O)N2CCC(N3Cc4ccccc4C3=O)CC2)CC1
half-life: > 30 min

Cc1ccc2nc(-c3cc(NC(=O)c4ccc5c(c4)OCCO5)ccc3Cl)oc2c1
half-life: > 30 min

CCCNc1oc(-c2cccc3ccccc23)nc1C#N
half-life: 13 min

COc1ccc(C(=O)N[C@@H]2CCC[C@@H]2C(=O)N2CCC(Cc3ccccc3)CC2)cc1
half-life: 2.66 min

Cc1ccc(S(=O)(=O)Nc2cnccc2C(=O)Nc2ccc(C#N)cc2)cc1
half-life: 7.5 min

Cc1ccc(CCNC(=O)C2CCCN(C(=O)c3cc4sccc4n3C)C2)cc1 (stereo not given)
half-life: 1.7 min

COc1cc2c3cc1Oc1c(O)c(OC)cc4c1[C@@H](Cc1ccc(cc1)Oc1cc(ccc1O)C[C@H]3N(C)CC2)N(C)CC4
half-life: 29.8 min

COc1cc2c(c(OC)c1OC)-c1ccc(SC)c(=O)cc1C(N)CC2 (stereo not given)
half-life: 9.88 min

Cc1c(CN(C)c2cc(C3CC(O)C3)nc(N)n2)[nH]c2ccccc12 (stereo not given)
half-life: 15 min

COc1cc(-c2nc(-c3c(C)noc3C)cc3c2cc(C)n3CCN(C)C)ccn1
half-life: 19.7 min

O=C(NCC1(c2nc(-c3ccccc3)cs2)CCOCC1)c1cccc(-c2noc(C(F)(F)F)n2)c1
half-life: 2.92 min

CC(C)(C)c1ccc(-n2cnc3cc(C(=O)N4CCCCC4)ccc32)cc1
half-life: 2.7 min

CCc1ccc(C2N=C(N)Nc3nc4ccccc4n32)cc1 (stereo not given)
half-life: 5.62 min

COc1ccccc1CNC(=O)CCCn1nc(C)c2c(C)n(-c3ccc(C)cc3)nc2c1=O
half-life: 3.45 min

FC(F)(F)c1ccccc1-c1nc(NCc2ccccc2)c2ccccc2n1
half-life: 2.74 min

C#CCNC(=O)c1nc(-c2ccc([S+](C)(=O)[O-])cc2)c2ccccn12
half-life: > 30 min

COc1ccc(-c2csc(C3=C(O)CN(Cc4ccc(Cl)cc4)C3=N)n2)cc1OC
half-life: 12 min

O=C(NCc1ccccc1)C1CCN(c2nc(-c3ccc(Br)cc3)cs2)CC1
half-life: 1.75 min

O=C(Nc1ccc(Cl)cc1Cl)c1cnc2ccccc2n1
half-life: 3 min

CN(C)c1cccc(-c2cc(N3CCC(C(N)=O)CC3)ncn2)c1
half-life: 21.1 min

Cc1ccc(S(=O)(=O)Nc2cnccc2C(=O)Nc2nc(C3CCC3)cs2)cc1
half-life: 5 min

COc1ccc(O)c2c(=O)c3c(OC)cc4c(c3oc12)C1C=COC1O4 (stereo not given)
half-life: 2.79 min

Fc1cc(F)cc(Nc2nc(-c3ccncc3)nc3ccccc23)c1
half-life: 15 min

Nc1ncnc2c1C(=O)N(c1ccc(C3CCC(CC(=O)O)CC3)cc1)CCO2 (stereo not given)
half-life: > 30 min

Cc1ccc(Nc2nc(C)c(NC(=O)c3ccc(C)cc3)c(Nc3ccc(C)cc3)n2)cc1
half-life: 20.1 min

CCC(CC)c1cc([C@H]2CN3CC[C@H]2C[C@@H]3CNC(=O)COc2ccccc2)nc(-c2ccncc2)n1
half-life: 2.38 min

O=C(Nc1ccc(S(=O)(=O)Nc2ncc(-c3ccccc3)s2)cc1)c1ccc2ccccc2c1
half-life: > 30 min

O=C(NCCc1ccc(OCC(F)(F)F)c(OCC(F)(F)F)c1)c1cc2sccc2n1Cc1ccccc1
half-life: 1.9 min

c1c[nH]c(C2CCN(c3ncc(-c4ccc5c(c4)OCCCO5)s3)CC2)n1
half-life: 4.29 min

CC(CNC(=O)C1CCN(Cc2cc3ccccc3n2Cc2ccccc2)CC1)c1ccccc1 (stereo not given)
half-life: 1.15 min

CC(C)c1ccccc1-c1ncc(F)c(NCc2ccc(-c3ccn[nH]3)cc2)n1
half-life: 2.8 min

CN(C)C(=O)c1nc(-c2ccc(Cl)nc2)c2ccccn12
half-life: > 30 min

CC(C)N(CCCNC(=O)Nc1ccc(C(C)(C)C)cc1)C[C@H]1O[C@@H](n2cc(Br)c3c(N)ncnc32)[C@H](O)[C@H]1O
half-life: 2.47 min

O=C(NCCCNc1nc(Nc2cccc(NC(=O)N3CCCC3)c2)ncc1I)c1cccs1
half-life: 1.87 min

Cc1ccc(SC2=NS(=O)(=O)c3ccccc32)c(C)c1
half-life: 1.54 min

CSc1cccc(NC(=O)CC[C@H]2O[C@@H]3O[C@]4(C)CC[C@H]5[C@H](C)CC[C@@H]([C@@H]2C)[C@@]35OO4)c1
half-life: 2.3 min

CN([C@@H](Cc1ccc(O[S+](=O)([O-])c2cccc3cnccc23)cc1)C(=O)N1CCN(C(=O)OCc2ccccc2)CC1)[S+](=O)([O-])c1cccc2cnccc12
half-life: 2.7 min

Cc1ccccc1C(=O)N1CCc2cc(-c3cccc(NC(=O)Cc4ccc5c(c4)OCO5)c3)ccc21
half-life: 9.7 min

CC[C@H]1CN2CCc3cc(OC)c(OC)cc3[C@@H]2C[C@@H]1C[C@H]1NCCc2cc(OC)c(OC)cc21
half-life: > 30 min

CCOC(=O)CCNc1cc(N2CCc3ccccc3CC2)nc(-c2ccccn2)n1
half-life: 1.5 min

COc1ccc(-c2ccc3ncc(Nc4ccc(C(N)=O)cc4)n3n2)cc1OC
half-life: > 30 min

CC(C)c1ccc(S(=O)(=O)c2cnc(SCC(=O)Nc3ccc4c(c3)OCCO4)[nH]c2=O)cc1
half-life: 3.84 min

O=C(Nc1ccc(S(=O)(=O)Nc2nc(-c3ccccc3)cs2)cc1)c1ccc2ccccc2c1
half-life: > 30 min

Cc1cnc(-c2ccccc2C(C)C)nc1NCC1CCN(c2cccnc2)C1 (stereo not given)
half-life: 2.87 min

Cc1nsc(N)c1C(=O)N(C)CCOc1ccccc1Cl
half-life: 3.7 min

CNc1oc(-c2cccc3ccccc23)nc1C(=O)OC
half-life: > 30 min

Cc1cc(C)c(CNC(=O)c2nc(-c3cccc(CO)c3)cc3c2ccn3C)c(=O)[nH]1
half-life: 8.11 min

O=S(=O)(Nc1cccc2ccccc12)c1ccc(NCc2cccc(Cl)c2O)cc1
half-life: 4.3 min

COc1ccc(NC(=O)c2[nH]c(C)c(C(C)=O)c2C)cc1S(=O)(=O)N1CCCCC1
half-life: 6 min

O=C(NCCCn1ccnc1)c1nc(-c2ccccc2)cc2[nH]ccc12
half-life: > 30 min

O=C1CCCC2=C1C1(CCSCC1)N=C(Nc1nc3ccccc3o1)N2
half-life: 2.3 min

Cc1noc(C)c1C(=O)N1CCC2(CCCN(Cc3ccccc3)C2)CC1
half-life: 7.2 min

CCn1c(=NC(=O)c2ccc(S(=O)(=O)N3CCCCC3)cc2)sc2cccc(OC)c21
half-life: 9.5 min

COc1cccc(CNc2ccc(S(=O)(=O)Nc3nc(C)cs3)cc2)c1O
half-life: > 30 min

O=C(Nc1ncc(Cc2ccc(C(F)(F)F)cc2)s1)c1cccc(-c2ccccc2)c1
half-life: > 30 min

Cc1ccc(S(=O)(=O)Nc2cc(Cl)c(Cl)cc2C(=O)Nc2nc(-c3ccccc3)cs2)cc1
half-life: 13 min

Cc1ccc(S(=O)(=O)Nc2cnccc2C(=O)Nc2nc(-c3cccnc3)cs2)cc1
half-life: 7.7 min

COc1ccc(S(=O)(=O)N2CCOCC2)cc1NC(=O)c1cccc(-n2cccc2)c1
half-life: 3.37 min

CCc1cccc(NC(=O)c2c(C)oc3nc(C)nc(N4CCCC4)c23)c1
half-life: 1.41 min

COc1ccc(NC(=O)c2cccnc2)cc1S(=O)(=O)Nc1ccc(Br)cc1
half-life: 21 min

Cc1nc(NCc2ccco2)nc2c1C(=O)CC(C)C2 (stereo not given)
half-life: 2.7 min

C[C@@]12O[C@@H](C[C@]1(O)CO)n1c3ccccc3c3c4c(c5c6ccccc6n2c5c31)CNC4=O
half-life: > 30 min

Cc1ccc(S(=O)(=O)Nc2cnccc2C(=O)Nc2nc(-c3ccc(Oc4ccccc4)cc3)cs2)cc1
half-life: 6.9 min

CCc1ccc(C2Sc3ccccc3NC3=C2C(=O)c2ccccc23)cc1 (stereo not given)
half-life: 1.81 min

CC1=Nc2cc(C(=O)NCc3ccccc3Cl)ccc2Sc2c(C)ccc(C)c21
half-life: 1.96 min

O=C(O)c1ccc(Nc2nc(-c3cc4ccccc4oc3=O)cs2)cc1O
half-life: > 30 min

COc1cccc(CNc2ccc(S(=O)(=O)Nc3ccc4ccccc4c3)cc2)c1O
half-life: 10 min

Cc1ccc(/C=C/c2nc3ccccc3n2S(=O)(=O)c2cccc(Cl)c2)cc1
half-life: 17.6 min

O=C(Cc1ccccc1)Nc1ccc(S(=O)(=O)Nc2nccs2)cc1
half-life: > 30 min

Cc1cccc(-n2cnc3cc(C(=O)N4CCCC(C(C)C)C4)ccc32)c1 (stereo not given)
half-life: 1.8 min

Cc1cc(F)ccc1S(=O)(=O)Nc1cnccc1C(=O)Nc1nc(-c2ccccc2)cs1
half-life: 20 min

COc1ccc(CCNc2ncnc3onc(C)c23)c(OC)c1
half-life: 2.23 min

COc1ccccc1-c1nc(NCc2ccc(-c3cccnc3)cc2)c2ccccc2n1
half-life: 4.45 min

Cc1ccccc1C(=O)N1CCc2cc(-c3nc(NC(=O)CC4CCCCC4)sc3C)ccc21
half-life: 11 min

C[C@@H](CCC[C@@H]1SC[C@H]2NC(=O)N[C@H]12)C(=O)O
half-life: > 30 min

Cc1ccc(-c2nc(NCC(=O)Nc3cccc(C(=O)O)c3)c3ccccc3n2)cc1
half-life: > 30 min

Cc1cc(-c2nc(Nc3ccc(F)c(F)c3)c3ccccc3n2)ccn1
half-life: 22 min

O=C1CCCC2=C1C(c1ccccc1Br)N=C(Nc1nc3ccccc3o1)N2 (stereo not given)
half-life: 9.6 min

N#Cc1ccccc1CSc1nc2ncc(Br)cc2[nH]1
half-life: 6.6 min

CC1Cc2cc(S(=O)(=O)NCc3ccc(N(C)C)cc3)ccc2N1C(=O)C1CCC1 (stereo not given)
half-life: 1.73 min

O=C(Nc1nc2cc(C(F)(F)F)ccc2s1)c1ccc(-c2cccc([N+](=O)[O-])c2)o1
half-life: > 30 min

COC(=O)c1nc(-c2cccc3ccccc23)oc1OC
half-life: 14 min

CC(C)c1ccccc1-c1nc(NCc2ccc(-c3cccnc3)cc2)c2ccccc2n1
half-life: 9.21 min

CC(=O)c1c(C)c(C(=O)Nc2cccc([S+](=O)([O-])N(C)C)c2)n(C)c1C
half-life: 15 min

COc1cccc(CNC(=O)c2ccc(N3CCCC3)c(NC(=O)Nc3ccccc3F)c2)c1
half-life: 1.7 min

COc1ccc(Nc2ncnc3c2cnn3-c2ccc(C)cc2)cc1Cl
half-life: > 30 min

Cc1cn2c(N)c(Cl)cc(C(=O)NCC3CCN(CC(C)C)CC3)c2n1
half-life: > 30 min

Cc1cc(-c2ccc(C)c(S(=O)(=O)NCC3CCN(Cc4ccc(F)cc4)CC3)c2)on1
half-life: 5.49 min

Cc1cccc2c(C(=O)O)cc(-c3cccs3)nc12
half-life: 8.96 min

CSc1ccc(C(=O)c2[nH]c(=O)[nH]c2C)cc1
half-life: > 30 min

CCOC(=O)N1CCN(Cc2nc3c(c(=O)n(C)c(=O)n3C)n2Cc2ccc(F)cc2)CC1
half-life: 8.7 min

Oc1c(CN2CCN(c3ccccn3)CC2)cc(Cl)c2cccnc12
half-life: 3.23 min

O=C(Nc1ncc(Cc2cccc(C(F)(F)F)c2)s1)c1ccc(-c2cccc([N+](=O)[O-])c2)o1
half-life: > 30 min

COc1cccc(Nc2ncc(-c3cccc(N(C)C)c3)c3c2OCC3)c1
half-life: 8.98 min
